Assay results taken from US10738028B2, “Spiro three-membered ring, spiro five-membered ring peptide deformylase inhibitor and use thereof in antibacteria and anti-tumor” (priority 2016, dated 2020).

What was measured:
Type in all cases: cell-based
[1] = tested on: HCT-116 colorectal cancer cell line; assay: CCK-8 proliferation inhibition; conditions: Homo sapiens, HCT-116, 72 h, concentration of 30 μM; 72 hours; CCK-8; read-out: HCT116 inhibition rate/%
Summary of the method: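 HCT-116 cells, seeded at 2000 cells/well in McCoy's 5A with 10% newborn bovine serum, were cultured overnight at 37° C., 5% CO2, then exposed to compound dilutions in medium for 72 hours. Viability was read with 1:10 diluted CCK-8; controls received 1‰ DMSO.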

[2] = tested on: methicillin-sensitive Staphylococcus epidermidis (MSSE); assay: MIC, two-fold agar dilution (CLSI), clinical isolates; conditions: for Anti-bacterial activity (MIC), strain MSSE 15-3: clinical isolate MSSE 15-3; for Anti-bacterial activity (MIC), strain MSSE 15-4: clinical isolate MSSE 15-4; for Anti-bacterial activity (MIC), strain MSSE 15-5: clinical isolate MSSE 15-5; for Anti-bacterial activity (MIC), strain MSSE 15-6: clinical isolate MSSE 15-6
Summary of the method: (§1)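 Following the American Clinical and Laboratory Standards Institute procedure, agar two-fold dilution served to determine minimum inhibitory concentrations.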

[3] = tested on: Moraxella catarrhalis (BCA); assay: as above; conditions: for Anti-bacterial activity (MIC), strain BCA 14-1: clinical isolate BCA 14-1; for Anti-bacterial activity (MIC), strain BCA 14-4: clinical isolate BCA 14-4; for Anti-bacterial activity (MIC), strain BCA 14-5: clinical isolate BCA 14-5; for Anti-bacterial activity (MIC), strain BCA 14-6: clinical isolate BCA 14-6; for Anti-bacterial activity (MIC), strain BCA 14-7: clinical isolate BCA 14-7; for Anti-bacterial activity (MIC), strain BCA 14-8: clinical isolate BCA 14-8; for Anti-bacterial activity (MIC), strain BCA 14-10: clinical isolate BCA 14-10
Summary of the method: as §1

[4] = tested on: methicillin-sensitive Staphylococcus aureus (MSSA); assay: as above; conditions: for Anti-bacterial activity (MIC), strain MSSA 15-3: clinical isolate MSSA 15-3; for Anti-bacterial activity (MIC), strain MSSA 15-4: clinical isolate MSSA 15-4; for Anti-bacterial activity (MIC), strain MSSA 15-5: clinical isolate MSSA 15-5; for Anti-bacterial activity (MIC), strain MSSA 15-6: clinical isolate MSSA 15-6
Summary of the method: as §1

[5] = tested on: Enterococcus faecalis (EFA); assay: as above; conditions: for Anti-bacterial activity (MIC), strain EFA 15-1: clinical isolate EFA 15-1; for Anti-bacterial activity (MIC), strain EFA 15-2: clinical isolate EFA 15-2; for Anti-bacterial activity (MIC), strain EFA 15-3: clinical isolate EFA 15-3; for Anti-bacterial activity (MIC), strain EFA 15-4: clinical isolate EFA 15-4; for Anti-bacterial activity (MIC), strain EFA 15-5: clinical isolate EFA 15-5; for Anti-bacterial activity (MIC), strain EFA 15-6: clinical isolate EFA 15-6; for Anti-bacterial activity (MIC), strain EFA 15-9: clinical isolate EFA 15-9
Summary of the method: as §1

[6] = tested on: methicillin-resistant Staphylococcus aureus (MRSA); assay: as above; conditions: for Anti-bacterial activity (MIC), strain MRSA 15-1: clinical isolate MRSA 15-1; for Anti-bacterial activity (MIC), strain MRSA 15-3: clinical isolate MRSA 15-3; for Anti-bacterial activity (MIC), strain MRSA 15-4: clinical isolate MRSA 15-4
Summary of the method: as §1

[7] = tested on: methicillin-resistant Staphylococcus epidermidis (MRSE); assay: as above; conditions: for Anti-bacterial activity (MIC), strain MRSE 15-1: clinical isolate MRSE 15-1; for Anti-bacterial activity (MIC), strain MRSE 15-2: clinical isolate MRSE 15-2; for Anti-bacterial activity (MIC), strain MRSE 15-3: clinical isolate MRSE 15-3; for Anti-bacterial activity (MIC), strain MRSE 15-7: clinical isolate MRSE 15-7
Summary of the method: as §1

[8] = tested on: Streptococcus pneoumoniae (SPN); assay: as above; conditions: for Anti-bacterial activity (MIC), strain SPN 16-2: clinical isolate SPN 16-2; for Anti-bacterial activity (MIC), strain SPN 16-4: clinical isolate SPN 16-4
Summary of the method: as §1

[9] = tested on: Enterococcus faecium (EFM); assay: as above; conditions: for Anti-bacterial activity (MIC), strain EFM 15-1: clinical isolate EFM 15-1; for Anti-bacterial activity (MIC), strain EFM 15-2: clinical isolate EFM 15-2; for Anti-bacterial activity (MIC), strain EFM 15-3: clinical isolate EFM 15-3; for Anti-bacterial activity (MIC), strain EFM 15-4: clinical isolate EFM 15-4; for Anti-bacterial activity (MIC), strain EFM 15-5: clinical isolate EFM 15-5; for Anti-bacterial activity (MIC), strain EFM 15-6: clinical isolate EFM 15-6
Summary of the method: as §1

[10] = tested on: Escherichia coli (including ESBLs, non-ESBLs); assay: as above; conditions: for Anti-bacterial activity (MIC), strain ECO+ 15-1: clinical isolate ECO+ 15-1; for Anti-bacterial activity (MIC), strain ECO+ 15-2: clinical isolate ECO+ 15-2; for Anti-bacterial activity (MIC), strain ECO+ 15-3: clinical isolate ECO+ 15-3; for Anti-bacterial activity (MIC), strain ECO+ 15-4: clinical isolate ECO+ 15-4; for Anti-bacterial activity (MIC), strain ECO− 15-1: clinical isolate ECO− 15-1; for Anti-bacterial activity (MIC), strain ECO− 15-2: clinical isolate ECO− 15-2; for Anti-bacterial activity (MIC), strain ECO− 15-3: clinical isolate ECO− 15-3; for Anti-bacterial activity (MIC), strain ECO− 15-4: clinical isolate ECO− 15-4
Summary of the method: as §1

CCCC[C@H](CC(=O)NO)C(=O)N1CC2(CC2)C[C@H]1C(=O)Nc1cccnn1 [Example 48, (S)-5-((R)-2-(2-(hydroxyamino)-2-oxoethyl)hexanoyl)-N-(pyridazin-3-yl)-5-azaspiro[2.4]heptane-6-amide]
inhibition at 30 µM [1]: 20%
Anti-bacterial activity (MIC), strain MSSE 15-3 [2]: 8 µg/mL
Anti-bacterial activity (MIC), strain MSSE 15-4 [2]: 32 µg/mL
Anti-bacterial activity (MIC), strain MSSE 15-5 [2]: 8 µg/mL
Anti-bacterial activity (MIC), strain MSSE 15-6 [2]: 8 µg/mL
Anti-bacterial activity (MIC), strain BCA 14-1 [3]: > 32 µg/mL
Anti-bacterial activity (MIC), strain BCA 14-4 [3]: > 32 µg/mL
Anti-bacterial activity (MIC), strain BCA 14-5 [3]: 8 µg/mL
Anti-bacterial activity (MIC), strain BCA 14-6 [3]: > 32 µg/mL
Anti-bacterial activity (MIC), strain BCA 14-7 [3]: 16 µg/mL
Anti-bacterial activity (MIC), strain BCA 14-8 [3]: 16 µg/mL
Anti-bacterial activity (MIC), strain BCA 14-10 [3]: > 32 µg/mL
Anti-bacterial activity (MIC), strain MSSA 15-3 [4]: 8 µg/mL
Anti-bacterial activity (MIC), strain MSSA 15-4 [4]: 8 µg/mL
Anti-bacterial activity (MIC), strain MSSA 15-5 [4]: 8 µg/mL
Anti-bacterial activity (MIC), strain MSSA 15-6 [4]: > 32 µg/mL
Anti-bacterial activity (MIC), strain EFA 15-1 [5]: > 32 µg/mL
Anti-bacterial activity (MIC), strain EFA 15-2 [5]: > 32 µg/mL
Anti-bacterial activity (MIC), strain EFA 15-3 [5]: > 32 µg/mL
Anti-bacterial activity (MIC), strain EFA 15-4 [5]: > 32 µg/mL
Anti-bacterial activity (MIC), strain EFA 15-5 [5]: > 32 µg/mL
Anti-bacterial activity (MIC), strain EFA 15-6 [5]: > 32 µg/mL
Anti-bacterial activity (MIC), strain EFA 15-9 [5]: 32 µg/mL
Anti-bacterial activity (MIC), strain MRSA 15-1 [6]: 2 µg/mL
Anti-bacterial activity (MIC), strain MRSA 15-2 ([6]; clinical isolate MRSA 15-2): 8 µg/mL
Anti-bacterial activity (MIC), strain MRSA 15-3 [6]: 2 µg/mL
Anti-bacterial activity (MIC), strain MRSA 15-4 [6]: 8 µg/mL
Anti-bacterial activity (MIC), strain MRSE 15-1 [7]: 8 µg/mL
Anti-bacterial activity (MIC), strain MRSE 15-2 [7]: 8 µg/mL
Anti-bacterial activity (MIC), strain MRSE 15-3 [7]: 8 µg/mL
Anti-bacterial activity (MIC), strain MRSE 15-7 [7]: 8 µg/mL
Anti-bacterial activity (MIC), strain SPN 16-2 [8]: 8 µg/mL
Anti-bacterial activity (MIC), strain SPN 16-4 [8]: 8 µg/mL
Anti-bacterial activity (MIC), strain EFM 15-1 [9]: > 32 µg/mL
Anti-bacterial activity (MIC), strain EFM 15-2 [9]: > 32 µg/mL
Anti-bacterial activity (MIC), strain EFM 15-3 [9]: > 32 µg/mL
Anti-bacterial activity (MIC), strain EFM 15-4 [9]: > 32 µg/mL
Anti-bacterial activity (MIC), strain EFM 15-5 [9]: 1 µg/mL
Anti-bacterial activity (MIC), strain EFM 15-6 [9]: 8 µg/mL
Anti-bacterial activity (MIC), strain ECO+ 15-1 [10]: 8 µg/mL
Anti-bacterial activity (MIC), strain ECO+ 15-2 [10]: > 32 µg/mL
Anti-bacterial activity (MIC), strain ECO+ 15-3 [10]: 32 µg/mL
Anti-bacterial activity (MIC), strain ECO+ 15-4 [10]: 32 µg/mL
Anti-bacterial activity (MIC), strain ECO− 15-1 [10]: > 32 µg/mL
Anti-bacterial activity (MIC), strain ECO− 15-2 [10]: > 32 µg/mL
Anti-bacterial activity (MIC), strain ECO− 15-3 [10]: > 32 µg/mL
Anti-bacterial activity (MIC), strain ECO− 15-4 [10]: > 32 µg/mL

CCCC[C@H](CC(=O)NO)C(=O)N1CC2(CC2)C[C@H]1C(=O)Nc1ncccc1F [Example 49, (S)—N-(3-fluoropyridin-2-yl)-5-((R)-2-(2-(hydroxyamino)-2-oxoethyl)hexanoyl)-5-azaspiro[2.4]heptane-6-amide]
inhibition at 30 µM [1]: 8%
Anti-bacterial activity (MIC), strain MSSE 15-3 [2]: > 32 µg/mL
Anti-bacterial activity (MIC), strain MSSE 15-4 [2]: > 32 µg/mL
Anti-bacterial activity (MIC), strain MSSE 15-5 [2]: > 32 µg/mL
Anti-bacterial activity (MIC), strain MSSE 15-6 [2]: > 32 µg/mL
Anti-bacterial activity (MIC), strain BCA 14-1 [3]: > 32 µg/mL
Anti-bacterial activity (MIC), strain BCA 14-4 [3]: > 32 µg/mL
Anti-bacterial activity (MIC), strain BCA 14-5 [3]: 4 µg/mL
Anti-bacterial activity (MIC), strain BCA 14-6 [3]: > 32 µg/mL
Anti-bacterial activity (MIC), strain BCA 14-7 [3]: > 32 µg/mL
Anti-bacterial activity (MIC), strain BCA 14-8 [3]: > 32 µg/mL
Anti-bacterial activity (MIC), strain BCA 14-10 [3]: > 32 µg/mL
Anti-bacterial activity (MIC), strain MSSA 15-3 [4]: 16 µg/mL
Anti-bacterial activity (MIC), strain MSSA 15-4 [4]: 16 µg/mL
Anti-bacterial activity (MIC), strain MSSA 15-5 [4]: > 32 µg/mL
Anti-bacterial activity (MIC), strain MSSA 15-6 [4]: > 32 µg/mL
Anti-bacterial activity (MIC), strain EFA 15-1 [5]: > 32 µg/mL
Anti-bacterial activity (MIC), strain EFA 15-2 [5]: > 32 µg/mL
Anti-bacterial activity (MIC), strain EFA 15-3 [5]: > 32 µg/mL
Anti-bacterial activity (MIC), strain EFA 15-4 [5]: > 32 µg/mL
Anti-bacterial activity (MIC), strain EFA 15-5 [5]: > 32 µg/mL
Anti-bacterial activity (MIC), strain EFA 15-6 [5]: > 32 µg/mL
Anti-bacterial activity (MIC), strain EFA 15-9 [5]: > 32 µg/mL
Anti-bacterial activity (MIC), strain MRSA 15-1 [6]: 8 µg/mL
Anti-bacterial activity (MIC), strain MRSA 15-3 [6]: 16 µg/mL
Anti-bacterial activity (MIC), strain MRSA 15-4 [6]: 16 µg/mL
Anti-bacterial activity (MIC), strain MRSE 15-1 [7]: > 32 µg/mL
Anti-bacterial activity (MIC), strain MRSE 15-2 [7]: > 32 µg/mL
Anti-bacterial activity (MIC), strain MRSE 15-3 [7]: > 32 µg/mL
Anti-bacterial activity (MIC), strain MRSE 15-7 [7]: > 32 µg/mL
Anti-bacterial activity (MIC), strain SPN 16-2 [8]: 4 µg/mL
Anti-bacterial activity (MIC), strain SPN 16-4 [8]: 4 µg/mL
Anti-bacterial activity (MIC), strain EFM 15-1 [9]: > 32 µg/mL
Anti-bacterial activity (MIC), strain EFM 15-2 [9]: > 32 µg/mL
Anti-bacterial activity (MIC), strain EFM 15-3 [9]: > 32 µg/mL
Anti-bacterial activity (MIC), strain EFM 15-4 [9]: > 32 µg/mL
Anti-bacterial activity (MIC), strain EFM 15-5 [9]: 2 µg/mL
Anti-bacterial activity (MIC), strain EFM 15-6 [9]: 2 µg/mL
Anti-bacterial activity (MIC), strain ECO+ 15-1 [10]: > 32 µg/mL
Anti-bacterial activity (MIC), strain ECO+ 15-2 [10]: > 32 µg/mL
Anti-bacterial activity (MIC), strain ECO+ 15-3 [10]: > 32 µg/mL
Anti-bacterial activity (MIC), strain ECO+ 15-4 [10]: > 32 µg/mL
Anti-bacterial activity (MIC), strain ECO− 15-1 [10]: > 32 µg/mL
Anti-bacterial activity (MIC), strain ECO− 15-2 [10]: > 32 µg/mL
Anti-bacterial activity (MIC), strain ECO− 15-3 [10]: > 32 µg/mL
Anti-bacterial activity (MIC), strain ECO− 15-4 [10]: > 32 µg/mL
